# Where “and” joins values, the source holds several entries; their conditions need not be identical. Equal values may be shown once. Read-outs that look alike come from different tables or passages of the source.
# Test: Plasma concentrations of BVDU, BVU and GEM in patients of the dose finding study (HPLC)
# Type: in vivo, human
# Conditions: for concentration at 0 hr / concentration at 0 h / concentration at 0.5 hr / concentration at 1 hr / concentration at 1.5 hr / concentration at 2 hr / concentration at 3 hr / concentration at 4 hr / concentration at 4 h / concentration at 5 hr / concentration at 9 hr / concentration at 0.5 h / concentration at 1 h / concentration at 1.5 h / concentration at 2 h / concentration at 3 h / concentration at 5 h / concentration at 9 h: human, plasma, po; for concentration at 0 hr / concentration at 0 h / concentration at 0.5 hr / concentration at 1 hr / concentration at 1.5 hr / concentration at 2 hr / concentration at 3 hr / concentration at 4 hr / concentration at 4 h / concentration at 5 hr / concentration at 9 hr / concentration at 0.5 h / concentration at 1 h / concentration at 1.5 h / concentration at 2 h / concentration at 3 h / concentration at 5 h / concentration at 9 h / BVDU plasma concentration, patient: day 1, oral BVDU
# Description: Dose finding study: 22 Patients with advanced pancreatic adenocarcinoma were eligible for treatment in this single arm study. The mean age was 60 years and 73% of patients were males. One patient without progressive disease was excluded from the study for withdrawal of consent after the first cycle. Of the 21 patients left, 15 were in stage IV and 6 in stage III. BVDU was administered in a combination with GEM. On day 1, on day 8 and on day 15 of each 28-day cycle, BVDU was given together with GEM. On days 2-4, on days 8-11, and on days 15-18 of a 28-day cycle, BVDU was given alone in the recovery phase.
# The starting dose of BVDU was 4×125 mg/day (total dose of 6,000 mg per treatment cycle) together with a fixed dose of GEM (1,000 mg/M^2). Subsequent total doses of BVDU per cycle were 7,500 mg, 9,000 mg, 10,500 mg, and 12,000 mg again in four patients per cohort. Dosage levels were administered as follows: First dose level: The starting dose of BVDU was 4×125 mg daily given at approximately 08:00 a.m. (1×125 mg BVDU), 12:00 a.m. (1×125 mg BVDU), 04:00 p.m. (1×125 mg BVDU), and 08:00 p.m. (1×125 mg BVDU). These doses were administered on days 1 to 4, days 8 to 11 and days 15 to 18; Second dose level: 1×250 mg+3×125 mg daily; Third dose level. 2×250 mg+2×125 mg daily; Forth dose level: 3×250 mg+1×125 mg daily; and, Fifth dose level: 4×250 mg daily.
# Approximately 1 hour after the 08:00 a.m. BVDU-administration on day 1, day 8 and day 15 of a cycle, the GEM infusion started and GEM was infused for 30 minutes.
# Analysis of the concentrations of GEM and BVDU (BVDU) as well as analysis of the concentrations of BVU ((E)-5-(2-bromovinyl)uracil, degradation product of BVDU) in plasma samples: 0.5 ml of plasma spiked with about 0.5 μg of 4-Propyl-2-thiouracil (PTU) as internal standard was extracted with 2.5 ml of methanol-acetonitrile (v/v, 1:9) by vigorous mixing for about 1 min. After centrifugation the supernatant was transferred to a beaker and evaporated to dryness at 50° C. under a gentle stream of nitrogen. The residue was dissolved in 1 ml of the solution used as mobile phase by 10 min treatment in an ultrasonic bath. After centrifugation the clear supernatant was used for HPLC-analysis. The concentrations of GEM and BVDU were calculated using a calibration curve with the respective standard substances. The concentrations of BVU were calculated using the calibration curve of BVDU and the determined response factor. Limits of detection: BVDU 20 ng/ml plasma; GEM 30 ng/ml plasma. Limits of quantification: BVDU 60 ng/ml plasma; GEM 100 ng/ml plasma.
# Pharmacokinetic Results BVDU: All measurements were performed within 9 hours. Therefore, only the first three intakes of BVDU-tablets were relevant in this context, and as consequence, in dose groups four and five the intake of tablets was identical. When the dose was doubled from 125 mg to 250 mg, the mean maximum BVDU concentration in plasma increased fivefold from 290 (±152) ng/ml to 1549 (±1058) ng/ml (FIG. 10).
# [1] = both sexes, dose level 6000 mg, read-out: BVDU plasma concentration, Mean
# [2] = both sexes, dose level 6000 mg, read-out: BVDU plasma concentration, Median
# [3] = both sexes, dose level 7500 mg, read-out: BVDU plasma concentration, Mean
# [4] = both sexes, dose level 10500 mg, read-out: BVDU plasma concentration, Mean
# [5] = both sexes, dose level 10500 mg, read-out: BVDU plasma concentration, Median
# [6] = both sexes, dose level 12000 mg, read-out: BVDU plasma concentration, Mean
# [7] = both sexes, dose level 12000 mg, read-out: BVDU plasma concentration, Median
# [8] = dose level 7500 mg, read-out: BVDU plasma concentration, Median
# [9] = dose level 9000 mg, read-out: BVDU plasma concentration, Mean
# [10] = dose level 9000 mg, read-out: BVDU plasma concentration, Median
structure (smiles),measurement,setting,value
"O=c1[nH]c(=O)n([C@H]2C[C@H](O)[C@@H](CO)O2)cc1/C=C/Br [BVDU, (E)-5-(2-bromovinyl)-2′-deoxyuridine]",Mean maximum BVDU concentration in plasma,BVDU dose 125 mg,290 (±152) ng/ml
same,Mean maximum BVDU concentration in plasma,BVDU dose 250 mg,1549 (±1058) ng/ml
same,concentration at 0 hr,[1],0 ng/mL
same,concentration at 0 hr,[2],0 ng/mL
same,concentration at 0 h,"both sexes, dose level 6000 mg, read-out: BVDU plasma concentration, patient",0 ng/mL
same,concentration at 0.5 hr,[1],213 ng/mL
same,concentration at 0.5 hr,[2],213 ng/mL
same,concentration at 1 hr,[1],177 ng/mL
same,concentration at 1 hr,[2],109 ng/mL
same,concentration at 1.5 hr,"both sexes, dose level 6000 mg, 1.5 hr, read-out: BVDU plasma concentration, Mean",250 ng/mL
same,concentration at 1.5 hr,"both sexes, dose level 6000 mg, 1.5 hr, read-out: BVDU plasma concentration, Median",226 ng/mL
same,concentration at 2 hr,[1],231 ng/mL
same,concentration at 2 hr,[2],207 ng/mL
same,concentration at 3 hr,[1],175 ng/mL
same,concentration at 3 hr,[2],133 ng/mL
same,concentration at 4 hr,"both sexes, dose level 6000 mg, 4.0 hr, read-out: BVDU plasma concentration, Mean",113 ng/mL
same,concentration at 4 hr,"both sexes, dose level 6000 mg, 4.0 hr, read-out: BVDU plasma concentration, Median",122 ng/mL
same,concentration at 4 h,"both sexes, dose level 6000 mg, 4.0 hr, read-out: BVDU plasma concentration, patient",126 ng/mL
same,concentration at 5 hr,[1],300 ng/mL
same,concentration at 5 hr,[2],334 ng/mL
same,concentration at 9 hr,[1],391 ng/mL
same,concentration at 9 hr,[2],403 ng/mL
same,concentration at 0 hr,[3],0 ng/mL
same,concentration at 0 hr,"both sexes, dose level 7500 mg, read-out: BVDU plasma concentration, patient",0 ng/mL
same,concentration at 0.5 hr,[3],1600 ng/mL
same,concentration at 1 hr,[3],872 ng/mL
same,concentration at 1.5 hr,"both sexes, dose level 7500 mg, 1.5 hr, read-out: BVDU plasma concentration, Mean",555 ng/mL
same,concentration at 2 hr,[3],454 ng/mL
same,concentration at 3 hr,[3],302 ng/mL
same,concentration at 4 hr,"both sexes, dose level 7500 mg, 4.0 hr, read-out: BVDU plasma concentration, Mean",243 ng/mL
same,concentration at 9 hr,[3],952 ng/mL
same,concentration at 0 h,[4],0 ng/mL
same,concentration at 0 h,[5],0 ng/mL
same,concentration at 0 h,"both sexes, dose level 10500 mg, read-out: BVDU plasma concentration, patient",0 ng/mL
same,concentration at 0.5 h,[4],1110 ng/mL
same,concentration at 0.5 h,[5],1150 ng/mL
same,concentration at 1 h,[4],1010 ng/mL
same,concentration at 1 h,[5],1010 ng/mL
same,concentration at 1.5 h,"both sexes, dose level 10500 mg, 1.5 hr, read-out: BVDU plasma concentration, Mean",636 ng/mL
same,concentration at 1.5 h,"both sexes, dose level 10500 mg, 1.5 hr, read-out: BVDU plasma concentration, Median",566 ng/mL
same,concentration at 2 h,[4],697 ng/mL
same,concentration at 2 h,[5],669 ng/mL
same,concentration at 3 h,[4],453 ng/mL
same,concentration at 3 h,[5],279 ng/mL
same,concentration at 4 h,"both sexes, dose level 10500 mg, 4.0 hr, read-out: BVDU plasma concentration, Mean",206 ng/mL
same,concentration at 4 h,"both sexes, dose level 10500 mg, 4.0 hr, read-out: BVDU plasma concentration, Median",212 ng/mL
same,concentration at 5 h,[4],400 ng/mL
same,concentration at 5 h,[5],410 ng/mL
same,concentration at 9 h,[4],2070 ng/mL
same,concentration at 9 h,[5],1390 ng/mL
same,concentration at 0 h,[6],0 ng/mL
same,concentration at 0 h,[7],0 ng/mL
same,concentration at 0 h,"both sexes, dose level 12000 mg, read-out: BVDU plasma concentration, patient",0 ng/mL
same,concentration at 0.5 h,[6],1490 ng/mL
same,concentration at 0.5 h,[7],672 ng/mL
same,concentration at 1 h,[6],1160 ng/mL
same,concentration at 1 h,[7],1020 ng/mL
same,concentration at 1.5 h,"both sexes, dose level 12000 mg, 1.5 hr, read-out: BVDU plasma concentration, Mean",1050 ng/mL
same,concentration at 1.5 h,"both sexes, dose level 12000 mg, 1.5 hr, read-out: BVDU plasma concentration, Median",844 ng/mL
same,concentration at 1.5 h,"both sexes, dose level 12000 mg, 1.5 hr, read-out: BVDU plasma concentration, patient",844 ng/mL
same,concentration at 2 h,[6],904 ng/mL
same,concentration at 2 h,[7],561 ng/mL
same,concentration at 3 h,[6],738 ng/mL
same,concentration at 3 h,[7],407 ng/mL
same,concentration at 4 h,"both sexes, dose level 12000 mg, 4.0 hr, read-out: BVDU plasma concentration, Mean",543 ng/mL
same,concentration at 4 h,"both sexes, dose level 12000 mg, 4.0 hr, read-out: BVDU plasma concentration, Median",440 ng/mL
same,concentration at 5 h,[6],2080 ng/mL
same,concentration at 5 h,[7],1070 ng/mL
same,concentration at 9 h,[6],2340 ng/mL
same,concentration at 9 h,[7],1780 ng/mL
same,Increase of mean maximum BVDU concentration in plasma,dose doubled from 125 mg to 250 mg,fivefold
same,"BVDU plasma concentration, patient","dose level 6000 mg, 4.0 hr",122 ng/mL and 90 ng/mL
same,"BVDU plasma concentration, patient","dose level 12000 mg, 1.5 hr",1524 ng/mL and 792 ng/mL
same,concentration at 0 h,[8],0 ng/mL
same,concentration at 0.5 h,[8],1130 ng/mL
same,concentration at 1 h,[8],484 ng/mL
same,concentration at 1.5 h,"dose level 7500 mg, 1.5 hr, read-out: BVDU plasma concentration, Median",644 ng/mL
same,concentration at 2 h,[8],403 ng/mL
same,concentration at 3 h,[8],304 ng/mL
same,concentration at 4 h,"dose level 7500 mg, 4.0 hr, read-out: BVDU plasma concentration, Median",242 ng/mL
same,concentration at 5 h,"dose level 7500 mg, read-out: BVDU plasma concentration, Mean",641 ng/mL
same,concentration at 5 h,[8],776 ng/mL
same,concentration at 9 h,[8],898 ng/mL
same,concentration at 0 h,[9],0 ng/mL
same,concentration at 0 h,[10],0 ng/mL
same,concentration at 0 h,"dose level 9000 mg, read-out: BVDU plasma concentration, patient",0 ng/mL
same,concentration at 0.5 h,[9],942 ng/mL
same,concentration at 0.5 h,[10],979 ng/mL
same,concentration at 1 h,[9],784 ng/mL
same,concentration at 1 h,[10],781 ng/mL
same,concentration at 1.5 h,"dose level 9000 mg, 1.5 hr, read-out: BVDU plasma concentration, Mean",697 ng/mL
same,concentration at 1.5 h,"dose level 9000 mg, 1.5 hr, read-out: BVDU plasma concentration, Median",530 ng/mL
same,concentration at 2 h,[9],701 ng/mL
same,concentration at 2 h,[10],705 ng/mL
same,concentration at 3 h,[9],464 ng/mL
same,concentration at 3 h,[10],441 ng/mL
same,concentration at 4 h,"dose level 9000 mg, 4.0 hr, read-out: BVDU plasma concentration, Mean",420 ng/mL
same,concentration at 4 h,"dose level 9000 mg, 4.0 hr, read-out: BVDU plasma concentration, Median",378 ng/mL
same,concentration at 5 h,[9],1300 ng/mL
same,concentration at 5 h,[10],1020 ng/mL
same,concentration at 9 h,[9],1510 ng/mL
same,concentration at 9 h,[10],1630 ng/mL
